Test results published in publication PMC7206119, “RIP1 inhibition blocks inflammatory diseases but not tumor growth or metastases” (Cell Death and Differentiation, 2019).

Tests used:
Assay in all cases: biochemical
Parameters in all cases: DiscoverX kinase panel, active-site competition binding (KINOMEscan type), percent of control at one concentration
Settings in all cases: competition binding, percent of control
[1] = biological target: T1, ABL1(F317I)-phosphorylated (Homo sapiens, UniProt P00519, F317I)
T1 construct: phosphorylated

[2] = biological target: T2, ABL1-phosphorylated (Homo sapiens, UniProt P00519)
T2 construct: phosphorylated

[3] = biological target: BMPR1A (Homo sapiens, UniProt P36894)
[4] = biological target: CAMKK1 (Homo sapiens, UniProt Q8N5S9)
[5] = biological target: CLK2 (Homo sapiens, UniProt P49760)
[6] = biological target: CLK4 (Homo sapiens, UniProt Q9HAZ1)
[7] = biological target: CSNK1E (Homo sapiens, UniProt P49674)
[8] = biological target: FLT3(ITD,F691L) (Homo sapiens, UniProt P36888, F691L/ITD)
[9] = biological target: FLT3(K663Q) (Homo sapiens, UniProt P36888, K663Q)
[10] = biological target: FLT3(N841I) (Homo sapiens, UniProt P36888, N841I)
[11] = biological target: T3, MRCKA (Homo sapiens, UniProt Q5VT25)
T3 construct: gene CDC42BPA

[12] = biological target: T4, OSR1 (Homo sapiens, UniProt O95747)
T4 construct: gene OXSR1

[13] = biological target: PIP5K1A (Homo sapiens, UniProt Q99755)
[14] = biological target: PIP5K1C (Homo sapiens, UniProt O60331)
[15] = biological target: PLK4 (Homo sapiens, UniProt O00444)
[16] = biological target: RIPK1 (Homo sapiens, UniProt Q13546)
[17] = biological target: SRC (Homo sapiens, UniProt P12931)
[18] = biological target: STK36 (Homo sapiens, UniProt Q9NRP7)
[19] = biological target: TNK2 (Homo sapiens, UniProt Q07912)
[20] = biological target: WNK3 (Homo sapiens, UniProt Q9BYP7)
[21] = biological target: T5, YANK3 (Homo sapiens, UniProt Q86UX6)
T5 construct: gene STK32C

Chain of CAMKK1 (Q8N5S9 whole entry): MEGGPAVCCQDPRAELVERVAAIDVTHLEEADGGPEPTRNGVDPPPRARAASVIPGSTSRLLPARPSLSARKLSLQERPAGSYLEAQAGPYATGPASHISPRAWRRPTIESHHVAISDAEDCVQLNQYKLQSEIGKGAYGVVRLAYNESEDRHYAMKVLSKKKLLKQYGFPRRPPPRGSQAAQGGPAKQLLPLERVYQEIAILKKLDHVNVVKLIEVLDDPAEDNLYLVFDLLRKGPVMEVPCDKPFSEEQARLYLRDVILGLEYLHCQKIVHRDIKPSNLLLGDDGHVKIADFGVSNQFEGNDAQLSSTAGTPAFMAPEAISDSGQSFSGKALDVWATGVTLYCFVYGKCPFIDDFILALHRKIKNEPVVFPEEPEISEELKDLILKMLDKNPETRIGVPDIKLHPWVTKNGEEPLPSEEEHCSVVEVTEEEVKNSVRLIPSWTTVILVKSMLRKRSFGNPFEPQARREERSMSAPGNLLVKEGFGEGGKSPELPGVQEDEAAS
Chain of PIP5K1A (Q99755 whole entry): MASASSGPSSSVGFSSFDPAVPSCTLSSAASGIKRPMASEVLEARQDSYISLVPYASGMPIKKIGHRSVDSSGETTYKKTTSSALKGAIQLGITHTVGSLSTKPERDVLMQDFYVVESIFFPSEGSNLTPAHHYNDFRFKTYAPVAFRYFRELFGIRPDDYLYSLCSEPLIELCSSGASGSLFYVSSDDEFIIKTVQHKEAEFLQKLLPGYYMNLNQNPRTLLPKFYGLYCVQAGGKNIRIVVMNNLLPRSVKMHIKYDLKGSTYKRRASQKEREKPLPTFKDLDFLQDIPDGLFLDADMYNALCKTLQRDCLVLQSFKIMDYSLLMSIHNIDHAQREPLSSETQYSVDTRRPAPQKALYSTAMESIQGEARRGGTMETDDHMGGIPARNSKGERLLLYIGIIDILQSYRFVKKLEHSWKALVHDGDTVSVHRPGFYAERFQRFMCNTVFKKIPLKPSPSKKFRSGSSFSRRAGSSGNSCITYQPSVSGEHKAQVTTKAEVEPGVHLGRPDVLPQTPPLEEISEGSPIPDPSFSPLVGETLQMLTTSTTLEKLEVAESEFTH
Chain of BMPR1A (P36894 whole entry): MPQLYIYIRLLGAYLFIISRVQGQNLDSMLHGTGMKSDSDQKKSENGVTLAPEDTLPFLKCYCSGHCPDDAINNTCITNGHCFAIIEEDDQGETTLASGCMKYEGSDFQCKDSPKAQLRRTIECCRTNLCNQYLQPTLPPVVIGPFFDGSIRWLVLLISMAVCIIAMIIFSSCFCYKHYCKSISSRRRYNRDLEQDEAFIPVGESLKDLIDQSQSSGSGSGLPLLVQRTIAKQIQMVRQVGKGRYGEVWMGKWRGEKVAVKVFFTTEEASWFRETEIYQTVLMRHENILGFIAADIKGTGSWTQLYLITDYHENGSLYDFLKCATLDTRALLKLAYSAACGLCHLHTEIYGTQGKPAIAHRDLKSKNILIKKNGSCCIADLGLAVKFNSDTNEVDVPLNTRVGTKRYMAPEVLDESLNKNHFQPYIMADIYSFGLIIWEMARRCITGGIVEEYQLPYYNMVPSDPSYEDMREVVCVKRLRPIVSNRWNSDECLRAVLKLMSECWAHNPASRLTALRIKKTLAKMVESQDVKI
T2 sequence (P00519 whole entry): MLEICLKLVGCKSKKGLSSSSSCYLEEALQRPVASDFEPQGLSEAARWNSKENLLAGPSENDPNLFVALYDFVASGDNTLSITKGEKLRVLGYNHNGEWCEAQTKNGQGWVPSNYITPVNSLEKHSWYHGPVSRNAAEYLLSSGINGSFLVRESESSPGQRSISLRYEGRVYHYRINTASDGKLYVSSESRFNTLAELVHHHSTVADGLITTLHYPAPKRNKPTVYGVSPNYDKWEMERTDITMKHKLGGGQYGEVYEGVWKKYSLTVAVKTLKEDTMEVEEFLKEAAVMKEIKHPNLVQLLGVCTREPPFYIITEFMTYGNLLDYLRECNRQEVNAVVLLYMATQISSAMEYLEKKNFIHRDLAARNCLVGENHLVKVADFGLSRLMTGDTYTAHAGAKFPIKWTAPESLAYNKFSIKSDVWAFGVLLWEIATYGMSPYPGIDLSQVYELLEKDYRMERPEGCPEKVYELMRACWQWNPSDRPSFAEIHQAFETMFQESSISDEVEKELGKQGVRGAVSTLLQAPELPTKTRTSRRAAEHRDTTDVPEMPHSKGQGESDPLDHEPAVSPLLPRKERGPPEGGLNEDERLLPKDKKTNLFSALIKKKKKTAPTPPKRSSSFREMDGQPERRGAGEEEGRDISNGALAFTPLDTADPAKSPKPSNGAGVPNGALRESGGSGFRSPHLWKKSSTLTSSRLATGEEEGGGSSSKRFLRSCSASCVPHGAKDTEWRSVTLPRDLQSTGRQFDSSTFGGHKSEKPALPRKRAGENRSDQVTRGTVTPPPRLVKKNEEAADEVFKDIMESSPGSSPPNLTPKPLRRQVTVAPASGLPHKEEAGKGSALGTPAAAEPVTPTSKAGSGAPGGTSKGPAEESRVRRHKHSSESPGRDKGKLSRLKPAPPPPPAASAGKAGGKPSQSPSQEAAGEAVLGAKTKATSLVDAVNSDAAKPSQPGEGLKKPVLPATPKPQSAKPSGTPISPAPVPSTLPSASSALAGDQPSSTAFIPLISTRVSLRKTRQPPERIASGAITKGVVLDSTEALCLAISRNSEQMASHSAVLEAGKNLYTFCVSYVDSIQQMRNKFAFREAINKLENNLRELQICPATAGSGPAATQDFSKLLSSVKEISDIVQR
T3 sequence (Q5VT25 whole entry): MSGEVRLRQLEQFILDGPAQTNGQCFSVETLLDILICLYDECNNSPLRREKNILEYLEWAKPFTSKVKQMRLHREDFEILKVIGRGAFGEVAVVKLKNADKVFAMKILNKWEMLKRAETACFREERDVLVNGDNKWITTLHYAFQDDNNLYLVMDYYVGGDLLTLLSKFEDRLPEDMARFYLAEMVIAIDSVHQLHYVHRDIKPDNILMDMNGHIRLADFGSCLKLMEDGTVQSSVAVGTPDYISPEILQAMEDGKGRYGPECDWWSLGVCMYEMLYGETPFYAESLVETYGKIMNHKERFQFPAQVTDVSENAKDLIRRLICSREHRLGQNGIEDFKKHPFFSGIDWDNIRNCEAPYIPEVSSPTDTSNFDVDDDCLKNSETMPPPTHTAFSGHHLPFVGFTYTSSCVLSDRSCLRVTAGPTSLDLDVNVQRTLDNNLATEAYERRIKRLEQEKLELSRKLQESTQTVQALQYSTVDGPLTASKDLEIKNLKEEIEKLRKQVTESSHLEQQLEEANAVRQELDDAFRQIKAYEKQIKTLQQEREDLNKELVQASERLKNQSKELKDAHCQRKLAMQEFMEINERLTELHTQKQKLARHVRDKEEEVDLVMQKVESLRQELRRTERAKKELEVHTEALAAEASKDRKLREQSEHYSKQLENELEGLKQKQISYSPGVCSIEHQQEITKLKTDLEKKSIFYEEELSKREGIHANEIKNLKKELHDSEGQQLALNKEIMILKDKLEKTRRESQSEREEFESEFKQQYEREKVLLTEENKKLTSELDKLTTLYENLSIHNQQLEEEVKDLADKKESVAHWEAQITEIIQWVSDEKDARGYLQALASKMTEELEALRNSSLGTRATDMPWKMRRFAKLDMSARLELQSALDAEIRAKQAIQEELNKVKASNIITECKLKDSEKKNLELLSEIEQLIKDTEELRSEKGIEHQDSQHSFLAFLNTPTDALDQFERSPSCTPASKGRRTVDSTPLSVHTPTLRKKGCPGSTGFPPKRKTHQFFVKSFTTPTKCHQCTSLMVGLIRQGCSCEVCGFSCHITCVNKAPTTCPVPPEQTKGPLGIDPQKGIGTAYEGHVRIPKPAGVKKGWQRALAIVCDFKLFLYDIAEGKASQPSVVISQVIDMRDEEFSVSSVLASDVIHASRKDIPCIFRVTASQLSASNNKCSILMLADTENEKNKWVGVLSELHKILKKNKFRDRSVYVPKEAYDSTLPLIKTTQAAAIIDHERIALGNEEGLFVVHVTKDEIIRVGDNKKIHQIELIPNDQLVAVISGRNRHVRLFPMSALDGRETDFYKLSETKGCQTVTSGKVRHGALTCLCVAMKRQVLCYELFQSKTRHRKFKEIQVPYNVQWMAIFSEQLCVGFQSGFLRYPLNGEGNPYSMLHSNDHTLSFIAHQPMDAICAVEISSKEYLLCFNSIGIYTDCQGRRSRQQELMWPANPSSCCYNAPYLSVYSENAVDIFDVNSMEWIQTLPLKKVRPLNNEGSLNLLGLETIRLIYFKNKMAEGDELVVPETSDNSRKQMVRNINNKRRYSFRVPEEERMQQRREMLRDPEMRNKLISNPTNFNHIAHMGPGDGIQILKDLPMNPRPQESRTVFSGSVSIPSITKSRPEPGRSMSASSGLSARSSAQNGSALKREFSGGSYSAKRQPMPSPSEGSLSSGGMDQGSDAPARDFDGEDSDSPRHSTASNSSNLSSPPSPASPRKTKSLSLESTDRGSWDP
Chain of CSNK1E (P49674 whole entry): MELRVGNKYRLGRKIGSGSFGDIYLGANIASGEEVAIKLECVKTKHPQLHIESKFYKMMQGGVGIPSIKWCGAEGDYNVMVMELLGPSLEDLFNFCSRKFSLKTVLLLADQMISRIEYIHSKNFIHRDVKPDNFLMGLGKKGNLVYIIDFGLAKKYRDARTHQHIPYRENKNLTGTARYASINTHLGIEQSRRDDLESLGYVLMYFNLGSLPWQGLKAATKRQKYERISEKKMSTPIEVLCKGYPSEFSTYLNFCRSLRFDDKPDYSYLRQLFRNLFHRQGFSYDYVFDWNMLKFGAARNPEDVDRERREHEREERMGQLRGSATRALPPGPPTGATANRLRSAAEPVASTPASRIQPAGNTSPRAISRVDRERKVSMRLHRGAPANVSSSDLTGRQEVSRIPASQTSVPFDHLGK
T1 sequence (P00519 whole entry F317I): as the sequence (P00519 whole entry) above, with F317I counted along it

COc1cc2c(cn1)N(C)C(=O)[C@@H](NC(=O)c1nc3n(n1)[C@H](c1ccccc1)CC3)CC2 [GNE684, (S)-N-((S)-7-methoxy-1-methyl-2-oxo-2,3,4,5-tetrahydro-1H-pyrido[3,4-b]azepin-3-yl)-5-phenyl-6,7-dihydro-5H-pyrrolo[1,2-b][1,2,4]triazole-2-carboxamide]
remaining binding at 10 µM [1]: 100%
remaining binding at 10 µM [2]: 84%
remaining binding at 10 µM [3]: 91%
remaining binding at 10 µM [4]: 99%
remaining binding at 10 µM [5]: 74%
remaining binding at 10 µM [6]: 95%
remaining binding at 10 µM [7]: 74%
remaining binding at 10 µM [8]: 98%
remaining binding at 10 µM [9]: 100%
remaining binding at 10 µM [10]: 100%
remaining binding at 10 µM [11]: 100%
remaining binding at 10 µM [12]: 93%
remaining binding at 10 µM [13]: 99%
remaining binding at 10 µM [14]: 100%
remaining binding at 10 µM [15]: 95%
remaining binding at 10 µM [16]: 0%
remaining binding at 10 µM [17]: 72%
remaining binding at 10 µM [18]: 85%
remaining binding at 10 µM [19]: 100%
remaining binding at 10 µM [20]: 100%
remaining binding at 10 µM [21]: 93%
